The values below come from patent US20100234402A1, “METHODS AND COMPOSITIONS FOR TREATING SPINAL MUSCULAR ATROPHY” (priority 2007, published 2010).

The target of assay [1] is T1, SMN complex (Homo sapiens, UniProt Q16637).
T1 construct: HeLa cell extracts (containing the SMN complex and all the components required for Sm core assembly); endogenous in cells; host or cells: HeLa: S3 cytoplasmic or total extracts for in vitro reactions, HeLa PV total extracts for compound-treated cells
The assay is described as follows: Magnetic beads snRNP assembly assay in vitro with cell extracts. The format is biochemical. To be noted: for IC50: extracts of untreated cells, read-out: IC50, inhibition of the activity of the SMN complex in vitro. The protocol:
(§1) Magnetic beads snRNP assembly assay was carried out in the presence of increasing amounts of H2O2. IC50 was calculated from the dose-response curve. The error bars represent SDs from 3 independent measurements. (B) Effect of menadione on the activity of the SMN complex in vitro. The same experimental procedure was carried out as in (A), except that menadione was used instead. (C) Dose-dependent effect of menadione on the activity of the SMN complex in cells. HeLa cells were treated with menadione at the indicated concentrations or with DMSO control for 1 hour. The activity of the SMN complex in extracts from various treated cells was measured in comparison to DMSO control cell extract (100% activity) by magnetic beads snRNP assembly assay. The error bars represent SDs from 3 independent measurements. (D) Extracts from (C) mixed with sample buffer without (−DTT) or with (+DTT) reducing agent were resolved by SDS-PAGE and analyzed by Western blot of the entire membrane with anti-SMN antibody 62E7. The molecular mass markers in 41 kDa are indicated on the left. “redSMN” indicates monomer SMN migrating at normal molecular mass and “oxSMN” indicates disulfide-crosslinked SMN upon oxidation. (E) β-lapachone and menadione generate ROS in live cells. HeLa cells were incubated with ROS indicator dye H2DCFDA (10 μM) or without dye as a control for 30 minutes, and then treated with the compounds at the indicated concentrations or DMSO as a control. Fluorescence images were acquired 30 minutes after the treatment.
(A) Cell extracts treated with 20 μM β-lapachone, or 20 μM β-lapachone together with 20 μM DTT, or DMSO control were analyzed by non-reducing Western blot. The relative levels of monomer SMN (“redSMN”) were calculated as the percentage of that in DMSO control and shown by the blue bar. Assembly activities of the SMN complex were measured by magnetic beads snRNP assembly assay using the same set of treated extracts and shown by the red bar. The error bar represents SDs from 3 independent experiments. (B) The sulfhydryl modifying reagent iodoacetamide inhibits the activity of the SMN complex. In vitro assembly assays were performed in the presence of various concentrations of iodoacetamide. The activity of the SMN complex in the absence of iodoacetamide was set as 100% activity, and the relative activity at each iodoacetamide concentration was calculated in comparison and graphed. The error bars represent SDs from triplicate samples.
For quantitative in vitro assembly assays on magnetic beads, cytoplasmic extracts were prepared and used for assembly on biotin-labeled snRNAs using the standard reconstitution conditions in 96-well plates. Following the reactions, Y12 antibodies immobilized onto the magnetizable Dynabeads Protein A (Dynal Biotech ASA, Oslo, Norway) in 100 μl of RSB-500 buffer ([…]) containing 2 mg/ml heparin, 0.1% NP-40, and 0.2 U/.μl RNasin Plus RNase inhibitor (Promega, Madison, Wis.) were added to each well. Immunoprecipitations in the 96-well plates were carried out with gentle mixing at 750 rpm in a Thermomixer (Eppendorf, Germany) at 30° C. for 1 hour. The plates were subsequently transferred to a Kingfisher 96 magnetic particle processor (Thermo Labsystems, Vantaa, Finland) for automatic washing of the Dynabeads in each well with wash buffer (RSB-500, 0.1% NP-40) 5 times. After the last wash, beads bound to Y12 immunoprecipitated snRNPs were then resuspended in 120 μl of wash buffer containing 0.08 μg/ml horseradish peroxidase (HRP)-conjugated NeutrAvidin.TM. (Pierce, Rockford, Ill.). Following incubation at 30° C. for 1 hour with gentle mixing, the beads in each well were again washed five times with the Kingfisher 96 magnetic particle processor, and finally resuspended in 150 μl of SuperSignal ELISA Femto Substrate Working Solution (Pierce). […]

The target of assay [2] is T1, SMN complex. The experiment in a line: Magnetic beads snRNP assembly assay on extracts from compound-treated HeLa cells. The format is cell-based. The protocol:
(§2) (B) Concentration-dependent inhibition of the activity of the SMN complex by b-lapachone in cells. HeLa cells were treated with various concentrations of β-lapachone or with DMSO (control) for 1 hour. The activity of the SMN complex in extracts from treated cells was measured using magnetic beads snRNP assembly assay and compared to that of DMSO-treated control cells (100% activity). IC50 was calculated from the dose-response graph. The error bars represent SDs from 3 independent measurements. […] Assembly reactions were performed using either cell extracts or purified native […] snRNP proteins lacking the SMN complex (Sm proteins). Both samples were adjusted to contain a similar amount of Sm proteins. Magnetic beads snRNP assembly assay were carried out with U4 or control U4DSm snRNA in the presence of either 20 or 100 μM β-lapachone or DMSO control. Sm core assembly on U4 snRNA in the presence of DMSO was considered 100% activity. The error bars represent SDs from 3 independent measurements.
In vitro transcription and labeling of RNAs was carried out using MEGAshortscript T7 transcription kit (Ambion) with the modification that 0.65 μM biotin-16-UTP (Roche) and 2.6 μM UTP were used in the reactions to produce biotinlabeled RNAs (Wan et al., 2005). Cell culture, drug treatment and preparation of cell extracts HeLa S3 cell pellets were purchased from National Cell Culture Center. Cytoplasmic extracts competent for snRNP assembly were prepared as described (Pellizzoni et al., 2002). Total cell extracts were made by resuspending cell pellets in reconstitution buffer ([…], 0.2 mM EDTA, 5% glycerol) containing 50 µg/ml digitonin (Calbiochem) and 1× Complete EDTA-free Protease Inhibitor Cocktail (Roche), followed by sonication. Nonidet P-40 (NP-40) was added to a final concentration of 0.01%, followed by centrifugation at 10,000 rpm for 15 minutes at 4° C. Glycerol was then added to the supernatant at a final concentration of 5%. For various drug treatments, two 10 cm plates of HeLa PV cells were treated with each drug at the indicated concentrations and times. Cells were harvested (˜90% confluent) and total cell extracts prepared using the aforementioned procedures. Protein concentrations of various extracts were determined using the Bradford protein assay (BioRad). All of the extracts for the same experiment were adjusted to the same final protein concentration
For quantitative in vitro assembly assays on magnetic beads, cytoplasmic extracts were prepared and used for assembly on biotin-labeled snRNAs using the standard reconstitution conditions in 96-well plates. […] The plates were transferred to a Wallac Victor2 multi-label plate reader (Perkin-Elmer, Wellesley, Mass.) for luminescence measurements at 495 nm. […]

The test system of the next assay is ROS in HeLa cells. The experiment in a line: ROS detection in live HeLa cells with H2DCFDA dye. The format is cell-based, human. Particulars: for ROS generation in live cells (H2DCFDA fluorescence): 10 μM H2DCFDA, images 30 minutes after treatment. How it is done:
as §1
Additional direct evidence for the ROS-generating activity of the compounds in live cells was obtained by staining cells with 2′,7′-dichlorodihydrofluorescein diacetate (H2DCFDA), a nonfluorescent dye that becomes fluorescent upon exposure to ROS. […] A significant level of ROS was apparent at 0.5 μM β-lapachone and increased proportionally with increasing b-lapachone concentrations.

The next assay concerns SMN protein. The experiment in a line: Quantitative non-reducing Western blot of SMN in extracts of treated HeLa cells. The format is cell-based, human. To be noted: 5 μM for 3 hours, prepared without DTT.
The subject of another assay is T2, Sm proteins.
T2 construct: Native, RNA-free total snRNP proteins (TPs) were prepared from HeLa S3 cells; endogenous in cells; host or cells: HeLa S3 cells (pellets from National Cell Culture Center); proteins purified in house by the method of Sumpter et al., 1992
The experiment in a line: Sm core assembly from purified native snRNP proteins lacking the SMN complex. The format is biochemical, human. To be noted: U4 snRNA, 20 or 100 μM. How it is done: as §2
Native, RNA-free total snRNP proteins (TPs) were prepared from HeLa S3 cells (National Cell Culture Center) as described previously (Sumpter et al., 1992). […] The other half of the samples were immunoprecipitated with anti-Sm monoclonal antibody (Y12), and the immunoprecipitated RNAs were isolated and analyzed by electrophoresis on […] urea/8% polyacrylamide gels. […]

The subject of a further assay is SMN. The experiment in a line: Indirect immunofluorescence of SMN (2B1) and snRNPs (Y12) in HeLa PV cells. Particulars: 5 μM for 3 hours vs DMSO control. The format is cell-based, human.
Assay [3] deals with transfected luciferase reporter. The experiment in a line: Transcription and translation of a transfected luciferase reporter in treated cells. The format is cell-based.

T1 sequence (Q16637 2-294 limits assumed): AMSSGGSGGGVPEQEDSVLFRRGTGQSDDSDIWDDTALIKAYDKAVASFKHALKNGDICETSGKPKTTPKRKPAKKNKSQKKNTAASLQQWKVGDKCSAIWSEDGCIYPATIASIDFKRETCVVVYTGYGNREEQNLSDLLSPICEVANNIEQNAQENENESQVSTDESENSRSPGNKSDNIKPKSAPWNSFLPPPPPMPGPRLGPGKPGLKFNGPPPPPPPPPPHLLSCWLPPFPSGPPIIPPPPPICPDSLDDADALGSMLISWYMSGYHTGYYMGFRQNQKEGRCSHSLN
T1 sequence (O14893 whole entry partner): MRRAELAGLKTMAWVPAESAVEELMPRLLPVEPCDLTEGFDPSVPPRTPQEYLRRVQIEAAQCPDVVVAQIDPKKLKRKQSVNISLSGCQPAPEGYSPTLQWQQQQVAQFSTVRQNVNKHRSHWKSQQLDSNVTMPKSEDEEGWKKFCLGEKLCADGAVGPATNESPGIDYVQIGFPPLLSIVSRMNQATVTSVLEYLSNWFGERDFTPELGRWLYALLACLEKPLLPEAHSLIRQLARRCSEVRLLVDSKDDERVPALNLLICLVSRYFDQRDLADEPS
Protocol for SMN protein: (B) HeLa total cell extracts prepared from cells treated for 3 hours with 5 μM β-lapachone or DMSO control were resolved by SDS-PAGE and analyzed by quantitative Western blotting, using JBP1 and Magoh as loading controls. The extracts were prepared and mixed with sample buffer without reducing agent. The membrane was cut into strips for the probing of each protein at the corresponding molecular mass.
For quantitative Western blot, cell extracts containing 20 g of total proteins were mixed with NuPAGE LDS sample buffer (Invitrogen) with or without reducing agent (Invitrogen), boiled for 5 minutes, and then separated on NuPAGE 4-12% Bis-Tris gels (Invitrogen) and transferred to nitrocellulose membranes. […] Mouse monoclonal antibodies, anti-SMN (62E7), anti-Gemin3 (12H12), anti-Gemin4 (17D10), anti-Gemin5 (10G11), anti-JBP1 (6G8), anti-Magoh (18G12) and anti-Sm (Y12), were used as described previously (Battle et al., 2006b; Lerner et al., 1981; Wan et al., 2005). The IRDye800 anti-mouse IgG secondary antibody (Rockland) was used at 1:5000.
To test this, extracts from b-lapachone-treated cells (at 5 μM for 3 hours) or DMSO-treated control cells were prepared in gel electrophoresis sample buffer without the reducing agent dithiothreitol (DTT) to preserve potential disulfides, resolved by SDS-PAGE, and analyzed by quantitative Western blots. […]

Consider `O[C@H](CS)[C@H](O)CS` (racemic) [DTT, dithiothreitol], for which the “prevention of the inhibitory effect of b-lapachone on SMN complex activity” value on SMN complex [1] (20 μM b-lapachone with 20 μM DTT) is “completely neutralized”.
Regarding `O=C1C(=O)c2ccccc2-c2ccccc21` [9,10-phenanthrenequinone], at SMN complex [1] (in vitro), the “inhibition of the SMN complex / assembly in cell extracts (in words)” value (“inhibition of the SMN complex / assembly” below) is on record as “strongly inhibit”.
As for `OO` [H2O2, hydrogen peroxide], the “IC50, inhibition of the activity of the SMN complex in vitro” value on SMN complex [1] (in vitro, value in words) is reported as “low millimolar range”.
With `CC(=O)N[C@@H](CS)C(=O)O` [N-acetyl-L-cysteine], the “prevention of the inhibition of b-lapachone, menadione and H2O2” value at SMN complex [1] (in vitro assembly reactions) is on record as “completely prevented”.
Consider `NC(=O)CI` [iodoacetamide], for which, on SMN complex [1] (in vitro), the “inhibition of the SMN complex / assembly” value was “inhibits”.
Regarding `CC1=CC(=O)c2ccccc2C1=O` [menadione, 2-methyl-1,4-napthoquinone], the “inhibition of SMN complex activity in cells” value against SMN complex [2] (HeLa cells treated for 1 hour) is on record as “dose-dependent inhibition”. For the same molecule, the IC50 at SMN complex [1] was 25 µM. Moreover, the “ROS generation in live cells (H2DCFDA fluorescence)” value with ROS in HeLa cells is recorded as “Dose-dependent fluorescence”.
Turning to `O=C1C(=O)C(Cl)=C(Cl)C(Cl)=C1Cl` [tetrachloro-1,2-benzoquinone], the “inhibition of the SMN complex / assembly” value against SMN complex [1] (in vitro) was “strongly inhibit”.
For the molecule `CC1(C)CCC2=C(O1)C(=O)c1ccccc1C2=O` [α-lapachone], the “inhibition of the SMN complex / assembly” value on SMN complex [1] (in vitro) was “does not inhibit”.
`CC1(C)CCC2=C(O1)c1ccccc1C(=O)C2=O` [β-lapachone, 3,4-dihydro-2,2-dimethyl-2H-naphthol[1,2-b]pyran-5,6-dione]: the IC50 was 0.45 µM on SMN complex [2] (HeLa cells treated for 1 hour, read-out: IC50, inhibition of the activity of the SMN complex in treated cells) and ~30 µM on SMN complex [1]. Besides, the “inhibition of snRNP assembly activity” value against SMN complex [2] (extracts from cells treated for 6 hours with subtoxic concentration) was “about 90%”. For the same molecule, the “inhibition of snRNP assembly” value on SMN complex [2] (within 30 minutes of treatment) was > 80%. The “decrease of intensity of the SMN band (monomer) compared to DMSO controls” value in the assay on SMN protein was ~60%. In addition, at SMN complex [1] (in vitro), the “inhibition of the SMN complex / assembly” value is on record as “inhibited assembly in the cell extracts”. The “ROS generation in live cells (H2DCFDA fluorescence)” value in the assay on ROS in HeLa cells is recorded as “Dose-dependent fluorescence”. The “concentration at which a significant level of ROS was apparent” value in the assay with ROS in HeLa cells (HeLa cells, H2DCFDA) was 0.5 µM. In addition, the “effect on Sm core formation from the purified snRNP proteins” value with Sm proteins is given as “no effect”. The “SMN signal intensity or localization” value with SMN was “no detectable difference”. In addition, the “inhibition of transcription and translation of a transfected luciferase reporter” value in assay [3] is reported as “did not significantly inhibit”.
